Reference: patent US20180280393A1, “METHODS AND COMPOSITIONS FOR TREATMENT OF METASTATIC AND REFRACTORY CANCERS AND TUMORS” (The Wistar Institute of Anatomy and Biology, priority 2015, published 2018)
Where two headings read alike, the source gives them in different places.

Experiments:
[1] = system: A2780 ovarian cancer cells; experiment: Molecular screening of compounds on A2780 cell proliferation (resazurin fluorescence); format: cell-based, human; details: A2780 cells cultured 3 days, N/A = ambiguous curve fits or EC50 greater than the highest concentration tested (25 μM), read-out: EC5 - A2780 ovarian cancer cells
Protocol: Cell proliferation assays—Cells were plated in 96-well plates. Compounds were added the next morning, and cell proliferation was measured 48 hrs later with the […] 96 MTS assay (Promega) according to the manufacturer's instructions. Molecular screening of compounds on A2780 cells was performed by adding compounds the morning after plating in 384-well plates and measuring proliferation 72 hrs later with resazurin fluorescence. Normalized percent inhibition (NPI) was calculated with respect to fluorescence values obtained with DMSO negative control and doxorubicin (5 μM) positive control as NPI=100%*(DMSO−compound)/(DMSO−doxorubicin). TCR ligation of human CD8 T cells
(§1) EC50 values were calculated from normalized percent inhibition data using non-linear curve fitting in PRISM software.

human T cells [2] = experiment: ConA-induced activation and expansion of human T cells (high-throughput screen); format: cell-based; details: human T cells activated with ConA for 7 days, N/A = ambiguous curve fits or EC50 greater than the highest concentration tested (25 μM)
Protocol: T cell stimulation—For human T cell proliferation assays, peripheral blood lymphocytes were obtained by leukapheresis/elutriation and Miltenyi bead-purified and K562 cells expressing human CD32 were generated as previously described^41. […] PBMCs were labeled with CELLTRACE Violet stain (Invitrogen) according to the manufacturer's instructions and cocultured with loaded K32 cells at a 10:1 T cells:K32 ratio or activated with ConA (2 μg/ml, Sigma). Proliferation of stimulated T cells was determined 7 days later by FACS and Division Index was calculated using FlowJo software.
as §1

human T cells [3] = experiment: aAPC (anti-CD3/anti-CD28)-induced human T cell proliferation, CELLTRACE; format: cell-based; details: 7 days
Protocol: Four plots show proliferation of CD8 cells after 7 days is shown. […] Proliferation of CD8 cells after 7 days is shown. T cell stimulation-For human T cell proliferation assays, peripheral blood lymphocytes were obtained by leukapheresis/elutriation and Miltenyi bead-purified and K562 cells expressing human CD32 were generated as previously described^41. […] were γ-irradiated (100 Gy) and loaded with anti-CD3 (500 ng/ml, clone OKT3; eBioscience) plus anti-CD28 (500 ng/ml, clone 15E8; EMD Millipore) antibodies at room temperature for 10 minutes. PBMCs were labeled with CELLTRACE Violet stain (Invitrogen) according to the manufacturer's instructions and cocultured with loaded […] cells at a 10:1 T cells:[…] ratio or activated with ConA (2 μg/ml, Sigma). Proliferation of stimulated T cells was determined 7 days later by FACS and Division Index was calculated using FlowJo software.

human T cells [4] = experiment: Cytokine rescue of human T cell proliferation from MEK inhibition; format: cell-based; details: GDC0973 or trametinib
Protocol: Proliferation of CD8 T cells after 7 days is shown.
FIG. 2D is a graph showing that human PBMCs were activated as in FIG. 2B with the indicated compounds, BKM120=2 μM.
Reported are percentages of cells that proliferated with GDC0973 relative to vehicle treatment with the same cytokines after 7 days. Stains are not depicted.
T cell stimulation—For human T cell proliferation assays, peripheral blood lymphocytes were obtained by leukapheresis/elutriation and Miltenyi bead-purified and K562 cells expressing human CD32 were generated as previously described^41. K32 were γ-irradiated (100 Gy) and loaded with anti-CD3 (500 ng/ml, clone OKT3; eBioscience) plus anti-CD28 (500 ng/ml, clone 15E8; EMD Millipore) antibodies at room temperature for 10 minutes. PBMCs were labeled with CELLTRACE Violet stain (Invitrogen) according to the manufacturer's instructions and cocultured with loaded K32 cells at a 10:1 T cells:K32 ratio or activated with ConA (2 μg/ml, Sigma). Proliferation of stimulated T cells was determined 7 days later by FACS and Division Index was calculated using FlowJo software.

| Molecule | EC50 ([1]; Homo sapiens, 72 h) | EC50 (human T cells [2]; T-cell, 168 h) | further results |
| --- | --- | --- | --- |
| CC(C)(C)c1cc(C=C(C#N)C#N)cc(Br)c1O [AG1024] | – | – | EC50 [1]: 21.3 µM; EC50 (human T cells [2]): 9.83 µM |
| Cn1cnc2c(F)c(Nc3ccc(Br)cc3Cl)c(C(=O)NOCCO)cc21 [AZD6244 (selumetinib), selumetinib] | – | 24.5 µM | – |
| CCc1cc(Nc2nccc(-c3c(-c4ccc(OC)c(C(=O)Nc5c(F)cccc5F)c4)nc4ccccn34)n2)c(OC)cc1N1CCC(N2CCN(S(C)(=O)=O)CC2)CC1 [GSK1904529] | – | – | EC50 (human T cells [2]): 13.9 µM |
| COc1ncc(-c2ccc3nccc(-c4ccnnc4)c3c2)cc1NS(=O)(=O)c1ccc(F)cc1F [GSK2126458] | – | – | EC50 [1]: 0.155 µM; EC50 (human T cells [2]): 0.000237 µM |
| Cn1ncc(Cl)c1-c1cc(C(=O)N[C@H](CN)Cc2ccc(F)c(F)c2)oc1Cl [GSK2141795] | – | – | EC50 [1]: 2.35 µM; EC50 (human T cells [2]): 0.096 µM |
| NC1(c2ccc(-c3nc4ccn5c(=O)[nH]nc5c4cc3-c3ccccc3)cc2)CCC1 [MK2206] | 8.75 µM | 0.446 µM | – |
| COc1cc(Nc2ncc3c(n2)-c2ccc(Cl)cc2C(c2c(F)cccc2OC)=NC3)ccc1C(=O)O [MLN8237] | – | 0.0868 µM | – |
| COc1cccc2cc(-c3nc([C@H]4CC[C@H](C(=O)O)CC4)n4ncnc(N)c34)[nH]c12 [OSI027] | 5.88 µM | 0.311 µM | – |
| CCCS(=O)(=O)Nc1ccc(F)c(C(=O)c2c[nH]c3ncc(-c4ccc(Cl)cc4)cc23)c1F [PLX4032 (vemurafenib), vemurafenib] | – | 5.26 µM | – |
| C=CCN(/C=C1/C(=O)O[C@H](COC)[C@@]2(C)C1=C(O)C(=O)C1=C2[C@H](OC(C)=O)C[C@]2(C)C(=O)CC[C@@H]12)CC=C [PX-866] | – | – | EC50 (human T cells [2]): 1.2 µM |
| Cn1c(Nc2ccc(C(F)(F)F)cc2)nc2cc(Oc3ccnc(-c4ncc(C(F)(F)F)[nH]4)c3)ccc21 [RAF265] | 5.63 µM | 0.128 µM | – |
| CO[C@H]1C[C@@H]2CC[C@@H](C)[C@@](O)(O2)C(=O)C(=O)N2CCCC[C@H]2C(=O)O[C@H]([C@H](C)C[C@@H]2CC[C@@H](O)[C@H](OC)C2)CC(=O)[C@H](C)/C=C(\C)[C@@H](O)[C@@H](OC)C(=O)[C@H](C)C[C@H](C)/C=C/C=C/C=C/1C [Rapamycin] | – | 0.00403 µM | – |
| O=C(Nc1ccc2[nH]nc(-c3ccncc3)c2c1)[C@@H]1CCN(CC(=O)N2CCN(c3ccc(-c4ncccn4)cc3)CC2)C1 [SCH772984] | 7.64 µM | 0.0222 µM | – |
| COc1ccc(C2=N[C@@H](c3ccc(Cl)cc3)[C@@H](c3ccc(Cl)cc3)N2C(=O)N2CCNC(=O)C2)c(OC(C)C)c1 [nutlin-3a] | – | – | EC50 [1]: 16.8 µM; EC50 (human T cells [2]): 1.13 µM |
| IL-21: cytokine tested for rescue of T cell expansion from MEK inhibition | – | – | rescue of T cell proliferation in the presence of the MEK inhibitors (human T cells [4]): no effect |
| IL-7: recombinant mouse IL-7 (Peprotech) (protein, UniProt P10168 26-154, looked up) Interleukin-7: ECHIKDKEGKAYESVLMISIDELDKMTGTDSNCPNNEPNFFRKHVCDDTKEAAFLNRAARKLKQFLKMNISEEFNVHLLTVSQGTQTLVNCTSKEEKNVKEQKKNDACFLKRLLREIKTCWNKILKGSI | – | – | rescue of T cell proliferation in the presence of the MEK inhibitors (human T cells [4]): able to rescue T cell proliferation |
| IL-27: cytokine tested for rescue of T cell expansion from MEK inhibition (protein, UniProt Q8NEV9 29-243; Q14213 21-229, looked up) Interleukin-27 subunit alpha: FPRPPGRPQLSLQELRREFTVSLHLARKLLSEVRGQAHRFAESHLPGVNLYLLPLGEQLPDVSLTFQAWRRLSDPERLCFISTTLQPFHALLGGLGTQGRWTNMERMQLWAMRLDLRDLQRHLRFQVLAAGFNLPEEEEEEEEEEEEERKGLLPGALGSALQGPAQVSWPQLLSTYRLLHSLELVLSRAVRELLLLSKAGHSVWPLGFPTLSPQP Interleukin-27 subunit beta: RKGPPAALTLPRVQCRASRYPIAVDCSWTLPPAPNSTSPVSFIATYRLGMAARGHSWPCLQQTPTSTSCTITDVQLFSMAPYVLNVTAVHPWGSSSSFVPFITEHIIKPDPPEGVRLSPLAERQLQVQWEPPGSWPFPEIFSLKYWIRYKRQGAARFHRVGPIEATSFILRAVRPRARYYVQVAAQDLTDYGELSDWSLPATATMSLGK | – | – | rescue of T cell proliferation in the presence of the MEK inhibitors (human T cells [4]): no effect |

More lines, main results first:

| EC50 ([1]; Homo sapiens, 72 h) | EC50 (human T cells [2]; T-cell, 168 h) | Molecule | further results |
| --- | --- | --- | --- |
| 19.1 µM | 2.48 µM | Cc1cn(-c2cc(NC(=O)c3ccc(C)c(Nc4nccc(-c5cccnc5)n4)c3)cc(C(F)(F)F)c2)cn1 [AMN107] | – |
| – | 0.422 µM | CN1CCN(CCOc2cc(OC3CCOCC3)c3c(Nc4c(Cl)ccc5c4OCO5)ncnc3c2)CC1 [AZD0530 (saracatinib), saracatinib] | – |
| – | 0.0921 µM | CCN(CCCOc1ccc2c(Nc3cc(CC(=O)Nc4cccc(F)c4)n[nH]3)ncnc2c1)CCOP(=O)(O)O [AZD1152] | – |
| – | 0.962 µM | Cc1cc([C@@H](C)Nc2ccccc2C(=O)O)c2nc(N3CCOCC3)cc(=O)n2c1 [AZD6482] | – |
| 11.5 µM | 0.239 µM | Nc1cc(C(F)(F)F)c(-c2cc(N3CCOCC3)nc(N3CCOCC3)n2)cn1 [BKM120] | proliferation of human T cells in response to aAPC coated with agonistic CD3 and CD28 antibodies (human T cells [3]): restricted the proliferation |
| 1.54 µM | – | CS(=O)(=O)N1CCN(Cc2cc3nc(-c4cccc5[nH]ncc45)nc(N4CCOCC4)c3s2)CC1 [GDC0941] | – |
| 9.04 µM | 0.00435 µM | O=C(c1ccc(F)c(F)c1Nc1ccc(I)cc1F)N1CC(O)([C@@H]2CCCCN2)C1 [GDC0973] | proliferation of human T cells in response to aAPC coated with agonistic CD3 and CD28 antibodies (human T cells [3]): restricted the proliferation |
| 11.4 µM | 1.28 µM | CC(C)(C)c1nc(-c2cccc(NS(=O)(=O)c3c(F)cccc3F)c2F)c(-c2ccnc(N)n2)s1 [GSK436 (dabrafenib), dabrafenib] | – |
| 0.257 µM | 0.0184 µM | CC(C)n1nc(-c2ccc3oc(N)nc3c2)c2c(N)ncnc21 [INK128] | – |
| 3.61 µM | – | Cc1[nH]c2ccccc2c1CCNCc1ccc(/C=C/C(=O)NO)cc1 [LBH589] | – |
| 8.48 µM | 3.57 µM | Cc1c(C(=O)Nc2ccc(N3C[C@@H](C)O[C@@H](C)C3)nc2)cccc1-c1ccc(OC(F)(F)F)cc1 [LDE225] | – |
| – | 2.93 µM | CN(C)C(=O)c1cc2cnc(Nc3ccc(N4CCNCC4)cn3)nc2n1C1CCCC1 [LEE011] | – |
| 24.4 µM | 9.03 µM | Cc1cc(-c2ncc(CC(=O)Nc3ccc(-c4cnccn4)cn3)cc2C)ccn1 [LGK974] | – |
| 17.2 µM | 2.69 µM | O=c1cc(N2CCOCC2)oc2c(-c3ccccc3)cccc12 [LY294002] | – |
| 5.21 µM | – | CC(=O)c1c(C)c2cnc(Nc3ccc(N4CCNCC4)cn3)nc2n(C2CCCC2)c1=O [PD0332991] | – |
| 5.83 µM | 0.0729 µM | O=C(Nc1cccc(Cl)c1)Nc1ncc(CCNc2ncnc3ccsc23)s1 [SNS314] | – |
| 1.11 µM | 0.0567 µM | COC1=CC(c2cc3ccccc3[nH]2)=N/C1=C\c1[nH]c(C)cc1C [obatoclax] | – |
